Data from patent US20140128260A1, “Compositions and Methods for Post Emergent Weed Control with Dim Herbicides and Gibberellic Acid” (Valent U.S.A. Corporation, priority 2012, published 2014).

Key:
[1] = test system: Glyphosate resistant corn; test: Effect of clethodim and GA3 treatments on planted glyphosate resistant corn (Example 2); type: in vivo
Method: A further study was performed in order to confirm the effect clethodim and GA3 treatments have on corn. Glyphosate resistant corn was planted with a conventional four-row planter. Treatments were applied 28 days after the plantings.
Effect of Clethodim and GA3 Treatments on corn (% control).

[2] = test system: Johnsongrass; test: Effect of clethodim and GA3 treatments on Johnsongrass, field plots (Example 1); type: in vivo, sorghum halepense
Method: In order to determine the efficacy of combinations of clethodim and GA3, numerous treatments were applied to plots in an area with abundant Johnsongrass growth.
The percent control of Johnsongrass plants was evaluated at 7, 18 and 28 days following the treatment. Effect of Clethodim and GA3 Treatments on Johnsongrass (% control).”
The percent control refers to the amount of dead tissue on the plants present. It would be dead plants plus desiccated foliage on partially killed plants.

SMILES	Corn % control ([1]; 6 DAT, clethodim 32 gm ai/a, with NIS and AMS) [%]	Corn % control ([1]; 13 DAT, clethodim 32 gm ai/a, with NIS and AMS) [%]	Corn % control ([1]; 29 DAT, clethodim 32 gm ai/a, with NIS and AMS) [%]	Activity of clethodim on corn in the presence of GA3 ([1]; in vivo)	Johnsongrass % control ([2]; 7 DAT, clethodim 32 x g ai/a (9 fl oz/a of Selectmax), with 0.25% v/v NIS and 2.5 lb/acre AMS) [%]	Johnsongrass % control ([2]; 18 DAT, clethodim 32 x g ai/a (9 fl oz/a of Selectmax), with 0.25% v/v NIS and 2.5 lb/acre AMS) [%]	Johnsongrass % control ([2]; 28 DAT, clethodim 32 x g ai/a (9 fl oz/a of Selectmax), with 0.25% v/v NIS and 2.5 lb/acre AMS) [%]	Corn % control ([1]; 6 DAT, GA3 3 g ai/a, with 0.25% v/v NIS and 2.5 lb/acre AMS) [%]	Corn % control ([1]; 6 DAT, GA3 10 g ai/a, with NIS and AMS) [%]	Corn % control ([1]; 13 DAT, GA3 3 g ai/a, with NIS and AMS) [%]	Corn % control ([1]; 13 DAT, GA3 10 g ai/a, with NIS and AMS) [%]	Corn % control ([1]; 29 DAT, GA3 3 g ai/a, with NIS and AMS) [%]	Corn % control ([1]; 29 DAT, GA3 10 g ai/a, with NIS and AMS) [%]	Johnsongrass % control ([2]; 7 DAT, GA3 5 g ai/a (5 fl oz/a of ProGibb 4%)) [%]	Johnsongrass % control ([2]; 7 DAT, GA3 25 g ai/a (25 fl oz/a of ProGibb 4%)) [%]	Johnsongrass % control ([2]; 18 DAT, GA3 5 g ai/a (5 fl oz/a of ProGibb 4%)) [%]	Johnsongrass % control ([2]; 18 DAT, GA3 25 g ai/a (25 fl oz/a of ProGibb 4%)) [%]	Johnsongrass % control ([2]; 28 DAT, GA3 5 g ai/a (5 fl oz/a of ProGibb 4%)) [%]	Johnsongrass % control ([2]; 28 DAT, GA3 25 g ai/a (25 fl oz/a of ProGibb 4%)) [%]	Effect of GA3 on the activity of clethodim on Johnsongrass ([2]; seven days following treatment)
CCSC(C)CC1CC(=O)C(C(CC)=NOC/C=C/Cl)=C(O)C1 (centres unmarked) [Clethodim, 2-[1-[[[(2E)-3-chloro-2-propen-1-yl]oxy]imino]propyl]-5-[2-(ethylthio)propyl]-3-hydroxy-2-cyclohexen-1-one]	48.33	88.33	96.00	significantly increased	37.21	85.66	89.26													
C=C1C[C@]23C[C@@]1(O)CC[C@H]2[C@@]12C=C[C@H](O)[C@@](C)(C(=O)O1)[C@H]2[C@@H]3C(=O)O [GA3, Gibberellic acid]								0	0	0	0	0	0	0	0	0.32	0	0	0	more than doubles the activity of clethodim
